In ChEMBL document CHEMBL3621178, “Antidiabetic effect of novel benzenesulfonylureas as PPAR-γ agonists and their anticancer effect” (Bioorg Med Chem Lett, 2015):
Calls of active or inactive are those of the source. No cut-off for these calls is given here.

Tests used:
Rattus norvegicus [1] = experiment: Antidiabetic activity in Wistar rat assessed as reduction in blood glucose level at 30 mg/kg, po dosed 30 mins before glucose challenge and measured 30 and 60 mins post glucose challenge by OGTT method; type: functional, organism-based
Rattus norvegicus [2] = experiment: Antidiabetic activity in STZ-induced diabetic Wistar rat model assessed as reduction in blood glucose level at 30 mg/kg, po repeated for 15 days by GOD-POD method; type: functional, organism-based
[3] = target: T1, Peroxisome proliferator-activated receptor gamma (Homo sapiens) (UniProt P37231); experiment: Agonist activity at PPARgamma (unknown origin) expressed in HEK293 cells assessed as receptor transactivation at 10 uM incubated for 24 hrs by luciferase reporter gene assay; type: cell-based
T1 sequence (whole entry): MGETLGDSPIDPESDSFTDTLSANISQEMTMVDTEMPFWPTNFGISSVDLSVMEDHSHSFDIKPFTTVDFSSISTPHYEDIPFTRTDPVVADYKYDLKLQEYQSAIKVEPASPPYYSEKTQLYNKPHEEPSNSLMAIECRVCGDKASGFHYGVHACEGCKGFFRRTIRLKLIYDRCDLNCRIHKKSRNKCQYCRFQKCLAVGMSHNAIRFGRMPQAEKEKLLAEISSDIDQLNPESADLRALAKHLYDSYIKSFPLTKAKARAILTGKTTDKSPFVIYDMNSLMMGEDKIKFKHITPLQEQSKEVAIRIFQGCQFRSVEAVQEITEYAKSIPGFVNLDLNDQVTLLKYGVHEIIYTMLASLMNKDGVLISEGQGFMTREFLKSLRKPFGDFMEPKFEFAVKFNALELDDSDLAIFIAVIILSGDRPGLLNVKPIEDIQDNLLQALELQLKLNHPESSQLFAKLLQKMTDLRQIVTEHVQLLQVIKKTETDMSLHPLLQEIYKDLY

Rattus norvegicus [4] = experiment: Toxicity in STZ-induced diabetic Wistar rat model assessed as increase in body weight at 30 mg/kg, po repeated for 15 days […]; type: organism-based; conditions: in vivo, 360 h
3T3-L1 = experiment: Increase in PPARgamma mRNA expression in mouse 3T3L1 cells at 10 uM incubated for 24 hrs by RT-PCR method; type: functional
Rattus norvegicus [5] = experiment: Antidiabetic activity in Wistar rat assessed as reduction in blood glucose level at 36 mg/kg, po dosed 30 mins before glucose challenge and measured 30 and 60 mins post glucose challenge by OGTT method; type: functional, organism-based
Rattus norvegicus [6] = experiment: Antidiabetic activity in STZ-induced diabetic Wistar rat model assessed as reduction in blood glucose level at 36 mg/kg, po repeated for 15 days by GOD-POD method; type: functional, organism-based
Rattus norvegicus [7] = experiment: Toxicity in STZ-induced diabetic Wistar rat model assessed as increase in body weight at 36 mg/kg, po repeated for 15 days […]; type: organism-based; conditions: in vivo, 360 h

Q: What does the source list for Cc1ccccc1NC(=O)NS(=O)(=O)c1ccc(N2N=C(c3ccco3)CC2c2ccc(N(C)C)cc2)cc1 (stereo not given)?
A: Activity (Rattus norvegicus [1]): Active; Activity (Rattus norvegicus [2]): Active; Activity [3]: Active; Activity (Rattus norvegicus [4]): Non-toxic

Q: Which results are given for Cc1ccccc1NC(=O)NS(=O)(=O)c1ccc(N2N=C(c3cc4ccccc4oc3=O)CC2c2ccc(N(C)C)cc2)cc1 (stereo not given)?
A: Activity (Rattus norvegicus [1]): Active; Activity (Rattus norvegicus [2]): Active; Activity [3]: Active; Activity (Rattus norvegicus [4]): Non-toxic; fold change (FC) (3T3-L1): 1.13

Q: With COc1ccc(C2CC(c3cc4ccccc4oc3=O)=NN2c2ccc(S(=O)(=O)NC(=S)NCc3ccccc3)cc2)cc1 (stereo not given) as the molecule, how does the Activity (Rattus norvegicus [1]) read?
A: Its Activity is “Active”.

Q: What about the Activity (Rattus norvegicus [2]) of the same molecule?
A: The Activity was “Active”.

Q: And the Activity [3]?
A: Its Activity is “Active”.

Q: And the Activity (Rattus norvegicus [4])?
A: The Activity was “Non-toxic”.

Q: For COc1ccc(NC(=S)NS(=O)(=O)c2ccc(N3N=C(c4ccco4)CC3c3ccc(N(C)C)cc3)cc2)cc1 (stereo not given), which Activity (Rattus norvegicus [1]) is on record?
A: The Activity was “Active”.

Q: Which results are given for CN(C)c1ccc(C2CC(c3ccco3)=NN2c2ccc(S(=O)(=O)NC(=O)NCc3ccccc3)cc2)cc1 (stereo not given)?
A: Activity (Rattus norvegicus [1]): Active; Activity (Rattus norvegicus [2]): Active; Activity [3]: Active; Activity (Rattus norvegicus [4]): Non-toxic

Q: For COc1ccc(NC(=O)NS(=O)(=O)c2ccc(N3N=C(c4ccco4)CC3c3ccc(N(C)C)cc3)cc2)cc1 (stereo not given), which Activity (Rattus norvegicus [1]) is on record?
A: The Activity was “Active”.

Q: With CN(CCOc1ccc(CC2SC(=O)NC2=O)cc1)c1ccccn1 (stereo not given) [ROSIGLITAZONE] as the molecule, how does the Activity (Rattus norvegicus [5]) read?
A: The Activity was “Active”.

Q: And the Activity (Rattus norvegicus [6])?
A: The Activity was “Active”.

Q: What about the Activity [3] of the same molecule?
A: The Activity was “Active”.

Q: What about the Activity (Rattus norvegicus [7]) of the same molecule?
A: Its Activity is “Toxic”.

Q: And the “fold change (FC)” value (3T3-L1)?
A: Its value is 1.52.

Q: Which results are given for COc1ccc(Cl)cc1C(=O)NCCc1ccc(S(=O)(=O)NC(=O)NC2CCCCC2)cc1 [GLYBURIDE]?
A: Activity (Rattus norvegicus [1]): Active; Activity (Rattus norvegicus [2]): Active; Activity [3]: Active; Activity (Rattus norvegicus [4]): Toxic; fold change (FC) (3T3-L1): 1.01

Q: With COc1ccc(C2CC(c3ccco3)=NN2c2ccc(S(=O)(=O)NC(=O)Nc3ccccc3C)cc2)cc1 (stereo not given) as the molecule, how does the Activity (Rattus norvegicus [1]) read?
A: The Activity was “Active”.
